Read-outs that look alike come from different tables or passages of the source.
Columns and labels:
CB2 cannabinoid receptor = CB2 cannabinoid receptor (Mus musculus, UniProt P47936); experiment: biochemical; assay type: binding; details: mouse spleen membranes
Method: Some of the inventive analogs were tested for CB2 receptor binding affinity and for CB1 receptor affinity (to determine selectivity). […] The lower the Ki value the higher the binding affinity.
(§1) The treated membranes were subsequently used in the binding assay described below. Approximately 30 μg of membranes were incubated in silanized 96-well microtiter plate with TME containing 0.1% essentially fatty acid-free bovine serum albumin (BSA), 0.8 nM [^3H] […] Radioactivity was detected using MicroScint 20 scintillation cocktail added directly to the dried filterplates, and the filterplates were counted using a Packard Instruments Top-Count. […] Data collected from three independent experiments performed with duplicate determinations was normalized between 100% and 0% specific binding for [^3H] […] The normalized data was analyzed using a 4-parameter nonlinear logistic equation to yield IC50 values.
Silanized centrifuge tubes were used throughout to minimize receptor loss due to adsorption. The CB2 binding assay was conducted in the same manner as for the CB1 binding assay. The binding affinities (Ki) were also expressed in nanomoles (nM).

CB1 cannabinoid receptor = target: T1, CB1 cannabinoid receptor (Rattus norvegicus, UniProt P20272); experiment: biochemical; assay type: binding; details: for Ki: rat forebrain membranes; for Selectivity CB1: CB1 over CB2 binding selectivity (ratio of Ki)
T1 construct: membranes were prepared from rat forebrain membranes; from tissue; host or cells: rat forebrain membranes
Method: Some of the inventive analogs were tested for CB2 receptor binding affinity and for CB1 receptor affinity (to determine selectivity). […] The lower the Ki value the higher the binding affinity. […]
Membranes, previously frozen at −80° C., were thawed on ice. To the stirred suspension was added three volumes of TME (25 mM Tris-HCl buffer, 5 mM MgCl2 and 1 mM EDTA) at a pH 7.4. The suspension was incubated at 4° C. for 30 min. At the end of the incubation, the membranes were pelleted and washed three times with TME.
as §1

[1] = Table 9, read-out: Receptor Affinities Ki (nM) CB2
[2] = Receptor Affinities Ki (nM) CB1, Table 9
[3] = Table 10, read-out: Receptor Affinities Ki (nM) CB2
[4] = Receptor Affinities Ki (nM) CB1, Table 10
[5] = Table 6, [3H] CP-55,940, read-out: CB2 Ki
[6] = CB1 Ki, Table 6, 0.8 nM [3H] CP-55,940
[7] = Table 8, read-out: Receptor Affinities Ki (nM) CB2
[8] = Receptor Affinities Ki (nM) CB1, Table 8

CB2 cannabinoid receptor, sequence (P47936 whole entry): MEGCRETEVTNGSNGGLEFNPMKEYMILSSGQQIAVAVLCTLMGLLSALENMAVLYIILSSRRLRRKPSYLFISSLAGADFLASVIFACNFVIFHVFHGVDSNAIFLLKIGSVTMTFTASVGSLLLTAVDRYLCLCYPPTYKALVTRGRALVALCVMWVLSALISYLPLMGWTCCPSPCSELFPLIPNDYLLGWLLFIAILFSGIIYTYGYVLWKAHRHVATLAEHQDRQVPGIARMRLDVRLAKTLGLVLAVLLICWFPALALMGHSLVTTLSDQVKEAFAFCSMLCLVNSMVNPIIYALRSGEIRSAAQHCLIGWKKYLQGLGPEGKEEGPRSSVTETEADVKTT
T1 sequence (P20272 whole entry): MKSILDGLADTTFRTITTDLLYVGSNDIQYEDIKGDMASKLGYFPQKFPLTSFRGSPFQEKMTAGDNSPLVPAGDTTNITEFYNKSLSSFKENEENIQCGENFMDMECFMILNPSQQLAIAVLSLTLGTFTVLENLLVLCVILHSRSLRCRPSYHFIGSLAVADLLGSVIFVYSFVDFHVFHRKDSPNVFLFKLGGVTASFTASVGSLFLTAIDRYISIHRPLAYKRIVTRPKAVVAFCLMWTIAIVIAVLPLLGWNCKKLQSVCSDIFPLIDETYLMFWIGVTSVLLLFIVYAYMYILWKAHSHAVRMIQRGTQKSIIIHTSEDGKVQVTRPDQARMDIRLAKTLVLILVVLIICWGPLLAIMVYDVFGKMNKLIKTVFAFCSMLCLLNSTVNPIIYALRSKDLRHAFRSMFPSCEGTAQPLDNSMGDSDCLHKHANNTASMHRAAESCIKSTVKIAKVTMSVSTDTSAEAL

Cc1c(C(=O)N(C)C2CCCCC2)nc(-c2ccc(Cl)cc2Cl)n1-c1ccc(CCCO)cc1 [Compound 4-7]
Ki (CB2 cannabinoid receptor; [1]): 290 nM | Ki (CB1 cannabinoid receptor; [2]): 100 nM | Selectivity CB1 (CB1 cannabinoid receptor; Table 9): 3

Cc1c(C(=O)NN2CCCCC2)nn(-c2ccc(Cl)cc2Cl)c1-c1ccc(C#CCCCCN)cc1 [Compound 5-15]
Ki (CB2 cannabinoid receptor; [3]): 1530 nM | Ki (CB1 cannabinoid receptor; [4]): 87 nM | Selectivity CB1 (CB1 cannabinoid receptor; Table 10): 17

Cc1c(C(=O)NN2CCCCC2)nn(-c2ccc(Cl)cc2Cl)c1-c1ccc(CCCCO)cc1 [Compound 4-2]
Ki (CB2 cannabinoid receptor; [1]): 43 nM | Ki (CB1 cannabinoid receptor; [2]): 2 nM | Selectivity CB1 (CB1 cannabinoid receptor; Table 9): 21

Cc1c(C(=O)NN2CCCCC2)nn(-c2ccc(Cl)cc2Cl)c1-c1ccc(C#CC2(O)CCCC2)cc1 [Compound 5-8]
Ki (CB2 cannabinoid receptor; [3]): 13 nM | Ki (CB1 cannabinoid receptor; [4]): 9 nM | Selectivity CB1 (CB1 cannabinoid receptor; Table 10): 1.5

N=C(S)c1ccc(-n2c(-c3ccc(Cl)cc3Cl)nc(C(=O)NN3CCCCC3)c2CO)cc1 [Compound 1-29]
Ki (CB2 cannabinoid receptor; [5]): 640 nM | Ki (CB1 cannabinoid receptor; [6]): 47.6 nM

Cc1c(C(=O)N(C)C2CCCCC2)nc(-c2ccc(Cl)cc2Cl)n1-c1ccc(C#CCO)cc1 [Compound 3-9]
Ki (CB2 cannabinoid receptor; [7]): 257 nM | Ki (CB1 cannabinoid receptor; [8]): 27 nM | Selectivity CB1 (CB1 cannabinoid receptor; Table 8): 9

O=C(NN1CCCCC1)c1nc(-c2ccc(Cl)cc2Cl)n(-c2ccc(-c3nccs3)cc2)c1CO [Compound 1-30]
Ki (CB2 cannabinoid receptor; [5]): 1510 nM | Ki (CB1 cannabinoid receptor; [6]): 23.9 nM

N#CCCC#Cc1ccc(-n2c(-c3ccc(Cl)cc3Cl)nc(C(=O)NN3CCCCC3)c2CO)cc1 [Compound 3-10]
Ki (CB2 cannabinoid receptor; [7]): 279 nM | Ki (CB1 cannabinoid receptor; [8]): 2 nM | Selectivity CB1 (CB1 cannabinoid receptor; Table 8): 140

Cc1c(C(=O)NN2CCCCC2)nn(-c2ccc(Cl)cc2Cl)c1-c1ccc(C#CC(C)(C)C)cc1 [Compound 5-11]
Ki (CB2 cannabinoid receptor; [3]): 25 nM | Ki (CB1 cannabinoid receptor; [4]): 25 nM | Selectivity CB1 (CB1 cannabinoid receptor; Table 10): 1

O=C(NN1CCCCC1)c1nc(-c2ccc(Cl)cc2Cl)n(-c2ccc(C#CCO)cc2)c1CO [Compound 1-34]
Ki (CB2 cannabinoid receptor; CB2 Ki, Table 6, [3H] CP-55,940): 5360 nM | Ki (CB1 cannabinoid receptor; [6]): 23.2 nM

Cc1c(C(=O)NN2CCCCC2)nn(-c2ccc(Cl)cc2Cl)c1-c1ccc(C#CCN=[N+]=[N-])cc1 [Compound 3-3]
Ki (CB2 cannabinoid receptor; [7]): 750 nM | Ki (CB1 cannabinoid receptor; [8]): 3 nM | Selectivity CB1 (CB1 cannabinoid receptor; Table 8): 250

Cc1c(C(=O)NN2CCCCC2)nn(-c2ccc(Cl)cc2Cl)c1-c1ccc(C#CCCCN)cc1 [Compound 5-14]
Ki (CB2 cannabinoid receptor; [3]): 947 nM | Ki (CB1 cannabinoid receptor; [4]): 46 nM | Selectivity CB1 (CB1 cannabinoid receptor; Table 10): 20

Cc1c(C(=O)N(C)C2CCCCC2)nc(-c2ccc(Cl)cc2Cl)n1-c1ccc(-c2nnn(C)n2)cc1 [Compound 1-24]
Ki (CB2 cannabinoid receptor; [5]): 220 nM | Ki (CB1 cannabinoid receptor; [6]): 11.2 nM

Source: patent US8410097B2 (priority 2005, dated 2013)
